Measured values taken from the Biogen ADME set (Fang et al. 2023).
In brackets after ≈: the same amount, converted by molar mass.

Settings: for aqueous solubility: pH 6.8

MDR1-MDCK efflux ratio | fraction unbound, human plasma | fraction unbound, rat plasma | intrinsic clearance, human liver microsomes | intrinsic clearance, rat liver microsomes | aqueous solubility | SMILES
8.23 | 0.708 | 0.979 | ≤ 4.74 mL/min/kg | 191 mL/min/kg | – | O=S(=O)(c1cccc2c(O)nccc12)N1CCCNCC1
3.28 | – | – | 21.7 mL/min/kg | 567 mL/min/kg | 54.4 µg/mL (≈ 173 µM) | CC(C)c1nc2c(n1C)CCN(c1ncnc3ccsc13)C2
5.7 | – | – | ≤ 4.74 mL/min/kg | ≤ 10.7 mL/min/kg | 53.6 µg/mL (≈ 156 µM) | COc1ccc(CN2CCN(c3cc(C)nc(N)n3)CC2)cc1OC
0.886 | – | – | 11.8 mL/min/kg | 860 mL/min/kg | – | CNC(=O)c1ccc(N2CCCc3cc(OC)ccc3C2)nn1
4.17 | – | – | ≤ 4.74 mL/min/kg | 54.3 mL/min/kg | 91.9 µg/mL (≈ 311 µM) | O=C(O)c1ccccc1-c1ccc(CN2CCCCC2)cc1
43.9 | – | – | 22.9 mL/min/kg | 422 mL/min/kg | 54.9 µg/mL (≈ 122 µM) | COc1ccccc1CNc1n[nH]c2nc([C@H]3CCCN(CC(=O)N4CCCC4)C3)ccc12
0.743 | – | – | 27 mL/min/kg | 351 mL/min/kg | – | CCCc1noc(CN2CCN(c3ccccc3OC)CC2)n1
0.45 | – | – | 12.2 mL/min/kg | 188 mL/min/kg | 43 µg/mL (≈ 146 µM) | CCn1cc(C2CCN(Cc3ccc(C#N)cc3)CC2)cn1
– | – | – | 42 mL/min/kg | 227 mL/min/kg | 2.9 µg/mL (≈ 8.11 µM) | Cc1nnc(NC(=O)c2nn(-c3ccc(F)cc3)c3c2CCCC3)s1
0.958 | – | – | 21 mL/min/kg | 676 mL/min/kg | 36 µg/mL (≈ 105 µM) | O=S(=O)(N1CCOCC1)N1CCN(Cc2ccccc2F)CC1
0.65 | – | – | – | – | 0.35 µg/mL (≈ 1.06 µM) | Cc1cccc(CNc2cccc3c2CCN(S(C)(=O)=O)C3)c1
28 | – | – | ≤ 4.74 mL/min/kg | ≤ 10.7 mL/min/kg | 29.2 µg/mL (≈ 72.6 µM) | COc1cc(OC)c(OC)cc1CNc1ccc(N2CCOCC2)c(C(=O)O)c1
1.48 | – | – | 447 mL/min/kg | 1580 mL/min/kg | 63.2 µg/mL (≈ 151 µM) | COc1ccc(-c2ccc(CN(CCN3CCOCC3)Cc3cccnc3)cc2)cc1
34.9 | – | – | 51.1 mL/min/kg | 123 mL/min/kg | – | CCCS(=O)(=O)c1nc(NC2CC2)cc(-c2ccc3c(ccn3C3CC(C)(C)NC(C)(C)C3)c2)n1
0.748 | – | – | 302 mL/min/kg | 2050 mL/min/kg | 55.6 µg/mL (≈ 164 µM) | Cc1nccc(-c2cccc(NCC(=O)N3CCCCCCC3)c2)n1
0.41 | 0.177 | 0.118 | 82.8 mL/min/kg | 1440 mL/min/kg | 25.7 µg/mL (≈ 76.2 µM) | CCN1CCN(S(=O)(=O)Cc2ccc(Cl)c(Cl)c2)CC1
15.7 | – | – | 18 mL/min/kg | 214 mL/min/kg | – | Cn1cnc2ncn(Cc3nc(CCc4ccc(Cl)cc4)no3)c(=O)c21
7.53 | – | – | ≤ 4.74 mL/min/kg | 50 mL/min/kg | – | COCCc1n[nH]c(-c2ccc(N3CCN(C)CC3)cc2)n1
43.4 | – | – | 6.19 mL/min/kg | 86.6 mL/min/kg | – | CN1CCc2ccc(C(=O)NCCC(=O)Nc3cccnc3)cc21
0.717 | – | – | 84.7 mL/min/kg | 800 mL/min/kg | 36.2 µg/mL (≈ 133 µM) | Fc1ccccc1CN1CCN(c2ncccn2)CC1

More lines, now with the values behind:

SMILES | MDR1-MDCK efflux ratio | fraction unbound, human plasma | fraction unbound, rat plasma | intrinsic clearance, human liver microsomes | intrinsic clearance, rat liver microsomes | aqueous solubility
Oc1ccc(-c2noc(-c3cccnc3)n2)cc1 | – | – | – | 25.1 mL/min/kg | 79.3 mL/min/kg | 5.03 µg/mL (≈ 21 µM)
O=C(NCc1ccccc1)c1ccc(NS(=O)(=O)c2ccc(C3CCCCC3)cc2)cc1 | 2.69 | – | – | 81 mL/min/kg | 402 mL/min/kg | 1.57 µg/mL (≈ 3.5 µM)
CCC(CC)N1CC[C@H](O)[C@@](O)(COc2cc(C)ccc2Cl)C1 | 1.18 | – | – | 371 mL/min/kg | 4650 mL/min/kg | –
CC(C)(C)c1nnnn1CC(=O)NC12CC3CC(CC(C3)C1)C2 | 0.776 | – | – | 57.4 mL/min/kg | 518 mL/min/kg | 25.8 µg/mL (≈ 81.4 µM)
O=C(O)/C=C/c1ccc(Cn2ccnc2)cc1 | 3 | – | – | ≤ 4.74 mL/min/kg | ≤ 10.7 mL/min/kg | 50.6 µg/mL (≈ 222 µM)
COc1ncccc1C(=O)Nc1nc(C)nn1C | 0.585 | – | – | ≤ 4.74 mL/min/kg | ≤ 10.7 mL/min/kg | –
O=C(NCC(F)(F)F)c1ccncc1 | – | – | – | – | – | 30.7 µg/mL (≈ 150 µM)
O=C(NCCCNC(=O)c1cc2ccccc2[nH]1)c1ccc2c(c1)OCCO2 | 6.74 | – | – | 19.3 mL/min/kg | 283 mL/min/kg | 40.5 µg/mL (≈ 107 µM)
Cc1cc(Br)ccc1CN(C)C(=O)CO | 0.75 | – | – | ≤ 4.74 mL/min/kg | 28.6 mL/min/kg | –
NC(=O)COc1ccccc1-c1ccccc1 | 0.621 | – | – | 25.9 mL/min/kg | 75.6 mL/min/kg | 39 µg/mL (≈ 172 µM)
C[C@@H]1c2nnn(-c3ncc(F)cn3)c2CCN1C(=O)c1cccc(C(F)(F)F)c1Cl | 3.42 | 0.0931 | 0.174 | ≤ 4.74 mL/min/kg | ≤ 10.7 mL/min/kg | 35.4 µg/mL (≈ 80.2 µM)
CNC(=O)c1cc(-c2ccccc2)no1 | – | – | – | – | – | 37 µg/mL (≈ 183 µM)
CN1C(=O)[C@H](Cc2ccccc2)N[C@@H]1C(C)(C)C | 0.771 | – | – | 53.9 mL/min/kg | 747 mL/min/kg | 30.3 µg/mL (≈ 123 µM)
CNCc1cc(N(C)C)nc(C2CCCN2C(=O)COC)n1 (stereo unspecified) | 5.05 | – | – | ≤ 4.74 mL/min/kg | ≤ 10.7 mL/min/kg | –
CC(C)CCn1ccc(NC2CCN(C(C)C)CC2)n1 | 3.58 | – | – | ≤ 4.74 mL/min/kg | 152 mL/min/kg | –
c1ccn2cc(CSc3ccc(-n4cccn4)nn3)nc2c1 | 0.732 | – | – | 18.6 mL/min/kg | 630 mL/min/kg | –
Cc1ccc2c(C(=O)N(C)C)cc(-c3cnc(C(C)C)nc3)nc2c1C | 1.95 | – | – | 16.7 mL/min/kg | 836 mL/min/kg | 2.43 µg/mL (≈ 6.97 µM)
Cc1nc2cc(C(=O)NC34CCCC3NCC4)ccc2c(=O)[nH]1 (stereo unspecified) | 0.754 | 0.735 | – | ≤ 4.74 mL/min/kg | – | –
Cc1cc(C)c(NC(=O)c2ccnc(OC3CCC3)c2)c(C)n1 | 1.43 | – | – | ≤ 4.74 mL/min/kg | 54.3 mL/min/kg | 36.1 µg/mL (≈ 116 µM)

SMILES | MDR1-MDCK efflux ratio | fraction unbound, human plasma | fraction unbound, rat plasma | intrinsic clearance, human liver microsomes | intrinsic clearance, rat liver microsomes | aqueous solubility
Cc1cc(-n2nc(C)cc2N)nc(C)n1 | – | – | – | 58.9 mL/min/kg | 125 mL/min/kg | –
O=C(Nc1nc2ccccc2[nH]1)C1CCCO1 (stereo unspecified) | – | – | – | – | – | 35.5 µg/mL (≈ 154 µM)
Cc1nccc(-c2cccc(NCC(=O)N(C)c3ccccc3)c2)n1 | 0.964 | – | – | 22 mL/min/kg | 401 mL/min/kg | 38.2 µg/mL (≈ 115 µM)
c1sc(NCC2CCCO2)nc1C12CC3CC(CC(C3)C1)C2 (stereo unspecified) | 0.537 | 0.0008 | – | 45.7 mL/min/kg | – | –
Cc1ccc(CCC(=O)Nc2nccc3sccc23)o1 | 0.465 | – | – | 66.2 mL/min/kg | 1140 mL/min/kg | –
COC(=O)c1ccc(NS(=O)(=O)c2ccc3c(c2)n(C)c(=O)n3C)cc1 | 20.5 | – | – | – | – | 15.6 µg/mL (≈ 41.6 µM)
COc1cc([C@H](CC(=O)O)c2ccc(C)c(CN3C[C@@H](C)Oc4ccccc4S3(=O)=O)c2)cc2nnn(C)c12 | 99.5 | – | – | – | – | –
O=C1NC(c2ccccc2)=N/C1=C/c1ccc2c(c1)OCO2 | – | – | – | – | – | 0.31 µg/mL (≈ 1.06 µM)
Cc1sc2nc(CN3CCCC3)nc(N)c2c1C | 17.6 | – | – | ≤ 4.74 mL/min/kg | 2760 mL/min/kg | 44.6 µg/mL (≈ 170 µM)
C[C@@H](/C=C\C(F)(F)F)Oc1cc(-c2cc(-c3cc(CN(C)C)cs3)cnc2N)ccc1C(N)=O | 32.7 | – | – | 20.5 mL/min/kg | 157 mL/min/kg | 21.2 µg/mL (≈ 43.2 µM)
O=C(O)c1ccc(-c2c[nH]c3ncc(-c4ccccc4)cc23)cc1C1CCCC1 | 1.54 | – | – | – | – | 0.41 µg/mL (≈ 1.07 µM)
CC(=O)N1CCC[C@H]1C(=O)Nc1cccc(OC(F)F)c1 | 1.42 | – | – | ≤ 4.74 mL/min/kg | 31.4 mL/min/kg | 47 µg/mL (≈ 157 µM)
COc1ccc(NC(=O)c2snnc2C)c(OC)c1 | 0.521 | – | – | 34.2 mL/min/kg | 182 mL/min/kg | 3.67 µg/mL (≈ 13.1 µM)
Cc1[nH]nc(CCC(=O)NCCCOC2CCCCC2)c1C | 18.2 | – | – | 63.5 mL/min/kg | 4360 mL/min/kg | –
Cc1nc(CCN2C(=O)NC(C)(C)C2=O)cs1 | 4.61 | – | – | ≤ 4.74 mL/min/kg | 21.7 mL/min/kg | 31.9 µg/mL (≈ 126 µM)
CN(c1nc2ccccc2o1)C1CCN(C2CCOCC2)CC1 | – | – | – | 438 mL/min/kg | 117 mL/min/kg | –
CSc1ccc(NC(=O)Cn2nc(C3CC3)ccc2=O)cc1 | 1.33 | – | – | 175 mL/min/kg | 611 mL/min/kg | 4.75 µg/mL (≈ 15.1 µM)
Cc1ncsc1CCN1C(=O)NC2(CCCC2)C1=O | – | – | – | ≤ 4.74 mL/min/kg | 172 mL/min/kg | –
CCc1cc(NS(C)(=O)=O)n(C)n1 | 2.54 | – | – | ≤ 4.74 mL/min/kg | ≤ 10.7 mL/min/kg | –
